From patent publication US10472663B2, “Procedure for the rapid determination of bacterial susceptibility to antibiotics that inhibit protein synthesis” (ABM TECHNOLOGIES, LLC, priority 2015, dated 2019)

Tests used:
Assay type in all cases: cell-based
Pseudomonas aeruginosa [1] = experiment: Variant Micromax assay of cell wall damage by meropenem after tobramycin (Example 5); details: for release of nucleoids (cell wall damage): tobramycin 4 μg/ml 15 min followed by meropenem 0.2 μg/ml 60 min
Excerpt: As an exemplification of this principal, FIGS. 19-24 illustrates assays of two strains of Pseudomonas aeruginosa exponentially growing in Mueller-Hinton broth. Both strains were both susceptible to the β-lactam meropenem, which inhibits peptidoglycan synthesis. One strain was susceptible (FIGS. 19-21) and the other resistant (FIGS. 22-24) to the aminoglycoside tobramycin (inhibitor of protein synthesis).
For the purpose of rapidly distinguishing susceptible and resistant (i.e. non-susceptible) strains to tobramycin each strain was subjected to four treatments. A portion of each strain was incubated with tobramycin at 4 μg/ml for 75 min (FIGS. 19 and 22). The dose utilized, was indicated by the CLSI as the breakpoint of susceptibility to tobramycin. FIGS. 20 and 23 illustrate an assay from another portion of each strain, which was incubated with Meropenem at 0.2 μg/ml for 60 min. FIGS. 21 and 24, illustrate assays from still another portion of both strains which was incubated with tobramycin at 4 μg/ml for 15 min followed by meropenem at 0.2 μg/ml for 60 min, without removing the tobramycin. Still another portion of both strains was maintained without the addition of either antibiotic.
(§1) After incubation cells were processed using a variant Micromax technology to visualize the affectation or not of the cell wall based on the release or not of the nucleoids contained inside the bacteria. In the same manner described previously, samples from cells from the culture are immersed in an agarose microgel on a slide and incubated with a specific lysing solution that removes the cell wall only in those bacteria whose peptidoglycan was affected, thus releasing in the microgel the nucleoids contained inside. […] The processed bacteria in microgel are dried, stained with a high sensitive fluorochrome for DNA like SYBR Gold and visualized under fluorescence microscopy.

Klebsiella pneumoniae = experiment: Variant Micromax assay of cell wall damage by meropenem after tobramycin, twelve strains; details: for cell wall lysis by meropenem: tobramycin 4 μg/ml 15 min followed by meropenem 1 μg/ml 60 min
Experimental: as §1
Further exemplifying the concept described above twelve strains of Klebsiella pneumoniae, 7 susceptible and 5 resistant to tobramycin, were processed using the same rationale and procedure. Specifically, one portion of each was incubated with tobramycin at 4 μg/ml for 75 min. Another portion was incubated with Meropenem at 1 μg/ml for 60 min. Still another portion was incubated with tobramycin at 4 μg/ml for 15 minutes followed by meropenem at 1 μg/ml for 60 min, without removing the tobramycin. A final portion remained without any antibiotics.

Pseudomonas aeruginosa [2] = experiment: Variant Micromax assay of cell enlargement by ceftazidime after tobramycin (Example 7)
Experimental: As an example, two strains of Pseudomonas aeruginosa exponentially growing in Mueller-Hinton broth were assayed. These strains were both susceptible to the β-lactam ceftazidime, which inhibits peptidoglycan synthesis. One strain was susceptible and the other resistant to the aminoglycoside tobramycin (an inhibitor of protein synthesis). For the purpose of rapidly distinguishing the susceptible and the resistant strain to tobramycin each strain was subjected to four treatments.
A portion of each strain was incubated with tobramycin at 4 μg/ml (the CLSI breakpoint of susceptibility) for 75 minutes. An assay of this portion is depicted at FIGS. 31 and 34. Another portion of each strain was incubated with ceftazidime at 0.5 μg/ml for 60 minutes. An assay of this portion is depicted at FIGS. 32 and 35. Still another portion of both strains was incubated with tobramycin at 4 μg/ml for 15 minutes followed by ceftazidime at 0.5 μg/ml for 60 minutes, without removing the tobramycin. Assays of these strains can be seen at FIGS. 33 and 36, respectively. A final portion of each strain was not treated with either antibiotic.
After incubation with the antibiotics, cells were processed using a variant Micromax technology to visualize the enlargement or not of the bacteria. Samples from each culture were immersed in an agarose microgel on a slide, dried, stained with a high sensitive fluorochrome for DNA like SYBR Gold and visualized under fluorescence microscopy to visualize cell shape and size.

## NC[C@H]1O[C@H](O[C@H]2[C@H](O)[C@@H](O[C@H]3O[C@H](CO)[C@@H](O)[C@H](N)[C@H]3O)[C@H](N)C[C@@H]2N)[C@H](N)C[C@@H]1O [tobramycin]
Pseudomonas aeruginosa [1]; tobramycin-resistant strain
  release of nucleoids (cell wall damage): the nucleoids were released
Pseudomonas aeruginosa [1]; tobramycin-susceptible strain
  release of nucleoids (cell wall damage): unchanged, non-lysed bacteria
Pseudomonas aeruginosa [1]; tobramycin alone 4 μg/ml 75 min, both strains
  cell wall lysis and bacterial shape: does not result in cell wall lysis
Klebsiella pneumoniae; of twelve strains
  strains resistant to tobramycin: 5
  strains susceptible to tobramycin: 7
Klebsiella pneumoniae; tobramycin-resistant strains
  cell wall lysis by meropenem: the affectation of the cell wall by meropenem was not suppressed
Klebsiella pneumoniae; tobramycin-susceptible strains
  cell wall lysis by meropenem: no appearance of cell wall lysis by meropenem
Pseudomonas aeruginosa [2]; tobramycin 4 μg/ml 15 minutes followed by ceftazidime 0.5 μg/ml 60 minutes, tobramycin-resistant strain
  cell enlargement: bacteria appeared enlarged
Pseudomonas aeruginosa [2]; tobramycin alone 4 μg/ml 75 minutes, both strains
  bacterial shape and size: does not affect the bacterial shape and size
